Consider two compounds from US12655110B2, “Method of producing a crystalline form of sodium 2-[(4S)-8-fluoro-2-[4-(3- methoxyphenyl)piperazin-1-yl]-3-[2-methoxy-5-(trifluoromethyl)phenyl]-4H-quinazoline-4-yl]acetate trihydrate” (A1C246 AG & CO. KG, priority 2020, dated 2026).

Type in all cases: physicochemical
Data set [1] in a line: Thermogravimetric analysis (TGA), decomposition. The settings on record: heated under nitrogen at 10° C./min from 30° C. to 300° C. The procedure:
Thermogravimetric analysis (TGA): Thermogravimetric analyses were recorded in a Mettler Toledo TGA/SDTA851 with a balance MT1 type. Approximately 3-4 mg of sample were weighed (using a MX5 Mettler Toledo microbalance) into 40 μL aluminium crucibles with a pinhole lid and heated under nitrogen (10 mL/min) at 10° C./min from 30° C. to 300° C. Programs used: Data collection and evaluation with software STARe.

Data set [2] is described as follows: Solid form stability in a drying process. The settings on record: drying process (>60° C.).
The nature of the next data set: Hygroscopicity (DVS). Conditions: for PXRD after DVS experiment (solid form): after hygroscopicity (DVS) experiment.

As to `CCO.COc1cccc(N2CCN(C3=Nc4c(F)cccc4[C@H](CC(=O)[O-])N3c3cc(C(F)(F)F)ccc3OC)CC2)c1.O.[Na+]` [Ethanol/Water Solvate, sodium 2-[(4S)-8-fluoro-2-[4-(3-methoxyphenyl)piperazin-1-yl]-3-[2-methoxy-5-(trifluoromethyl)phenyl]-4H-quinazolin-4-yl]acetate ethanol monohydrate], the “TGA: decomposition occurs at” value in data set [1] is “Decomposition occurs at ca. 250 °C”. For the same compound, the “Solid form change in a drying process” value in data set [2] is on record as “The solid turns into the amorphous”. The “Hygroscopicity (DVS): water adsorption” value in “Hygroscopicity (DVS)” (10-80% RH) is listed as 5.3% water adsorption (10-80% RH); in the data set “Hygroscopicity (DVS)” (10-90% RH) it was 3.2% water adsorption (10-90% RH). Also, the “PXRD after DVS experiment (solid form)” value in “Hygroscopicity (DVS)” is listed as “PXRD after experiment: trihydrate”.
The corresponding values for `COc1cccc(N2CCN(C3=Nc4c(F)cccc4[C@H](CC(=O)O)N3c3cc(C(F)(F)F)ccc3OC)CC2)c1` [Trihydrate, sodium 2-[(4S)-8-fluoro-2-[4-(3-methoxyphenyl)piperazin-1-yl]-3-[2-methoxy-5-(trifluoromethyl)phenyl]-4H-quinazolin-4-yl]acetate trihydrate] are “Decomposition occurs at ca. 250 °C”, “The solid turns into the amorphous”, 4.1% water adsorption (10-80% RH), 8.6% water adsorption (10-90% RH) and “No PXRD changes after experiment”.
